Assay results published in patent US20140315956A1, “SMALL MOLECULE INHIBITORS OF IL-6 AND USES THEREOF” (NATIONWIDE CHILDREN'S HOSPITAL, priority 2011, published 2014).
Where “and” joins values, the source holds several entries; their conditions need not be identical. Identical values can stand only once. Like-named read-outs stand apart in the source and are kept apart here.

Molecular target: T1, gp130 extracellular domain (recombinant gp130-Fc-HA) (Homo sapiens, UniProt P40189)
T1 construct: purified gp130 (amino residue 18-615); made in house; host or cells: HEK293T (plasmid from Dr. John J. Krolewski)
T1 sequence (P40189 18-615): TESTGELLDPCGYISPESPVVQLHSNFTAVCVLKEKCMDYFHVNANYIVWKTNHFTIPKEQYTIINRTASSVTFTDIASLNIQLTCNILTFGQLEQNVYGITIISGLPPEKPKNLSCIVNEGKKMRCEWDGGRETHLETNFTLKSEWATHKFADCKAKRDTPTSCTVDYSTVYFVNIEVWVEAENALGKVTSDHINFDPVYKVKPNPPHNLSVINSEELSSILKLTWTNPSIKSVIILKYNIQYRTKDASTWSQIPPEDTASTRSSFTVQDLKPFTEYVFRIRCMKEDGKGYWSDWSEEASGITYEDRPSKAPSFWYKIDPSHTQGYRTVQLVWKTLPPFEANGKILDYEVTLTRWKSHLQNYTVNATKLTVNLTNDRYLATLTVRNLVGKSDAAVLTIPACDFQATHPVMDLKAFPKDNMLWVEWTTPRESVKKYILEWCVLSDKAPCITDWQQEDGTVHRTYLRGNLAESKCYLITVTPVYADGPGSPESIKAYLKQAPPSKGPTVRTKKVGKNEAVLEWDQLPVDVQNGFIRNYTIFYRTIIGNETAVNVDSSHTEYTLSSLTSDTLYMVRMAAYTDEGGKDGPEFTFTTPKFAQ
Experiment: Surface plasmon resonance direct binding to gp130-Fc-HA
Description: HEK293T cells were grown in media containing DMEM+10% fetal bovine serum (FBS),100 U/ml penicillin and […] streptomycin (Invitrogen) in a humidified 37° C. incubator with 5% CO2. Plasmid DNA expressing gp130-Fc-HA was transfected in the form of calcium phosphate precipitate into HEK293T cells (ten T75 flasks containing 5.5×10^6 cells). The supernatant was harvested sixty hours post transfection and centrifuged to remove residual cells and adjusted to pH 8.0. The supernatant was passed through a 0.45 μm filter. The gp130-Fc-HA tagged protein was immunoprecipitated using anti-HA affinity matrix (Roche Applied Bioscience).A one milliliter column containing anti-HA affinity matrix was equilibrated with 20 mM Tris-HCl, 0.1M NaCl, 0.1 mM EDTA (pH 8.0). The supernatant was applied to the equilibrated column and the column was washed successively with 20 mM Tris-HCl, 1M NaCl (pH 8.0). Bound protein was eluted with HA peptide dissolved in equilibration buffer. The column was regenerated with 0.1 M glycine (pH 2.0). Fractions containing recombinant protein were pooled, dialyzed against HBS buffer [10 mM HEPES (pH 7.4), 0.15 M NaCl, 3 mM EDTA, 0.005% P20] and concentrated by Centricon 30 (Amicon) centrifugation. Protein concentration was determined using Bradford protein assay reagent (Pierce), with bovine serum albumin (BSA, Fisher Scientific) as a standard. The purified recombinant gp130 protein was analyzed using SDS-PAGE and immunoblotting.
Surface plasmon resonance (SPR) analysis was performed using BIAcore T100. Recombinant gp130-Fc-HA was cross-linked to the flow cell on a carboxymethylated dextran matrix of a CM5 sensor chip (BIAcore) using standard amino group coupling methods according to the manufacturer's instructions. Sodium acetate (10 mM, pH 3.5) gave the best immobilization of the protein on the chip surface and unreactive groups on the chip were blocked by ethanolamine according to the manufacturer's instructions. Approximately 5000 resonance units (RU) of gp130-Fc-HA were cross-linked to the flow cell. HBS+1% DMSO were used in all buffers (running and sample) to avoid background response due to differences in buffer refractive index. For the equilibrium analysis, various concentrations of MDL-A, 1, and 2 were injected for a period of 2 min at a flow rate of 30 μl/min, in series, into flow cells containing covalently bound gp130-fc-HA and reference flow cell. Bound ligand (MDL-A, 1, and 2) in each assay was removed by passing 10 mM glycine (pH 2.2) over the chip surface. Biacore T100 Evaluation 2.0 was used for all interaction analyses. The steady-state equilibrium response (RUeq) was determined from the reference-subtracted sensogram. The kinetics parameter was calculated according to a 1:1 Langmuir binding model (A+B ? AB) by direct fitting of ligand binding sensor grams at multiple concentrations. The dissociation equilibrium constant is defined as dissociation constant (KD)=dissociation rate constant (kd)/association rate constant (ka). KD was determined by scattered analysis of equilibrium-state data obtained at different concentrations of analogues.
To examine the direct binding and calculation of equilibrium dissociation constant (KD) of MDL-A analogues with gp130 extracellular domain, surface plasmon resonance analysis was done. Protein was covalently cross linked to the dextran matrix of the biosensor chip CM5. Successively, various concentrations of MDL-A and MDL-A analogues were injected into the flow cells containing bound protein and no protein (reference). Interactions were monitored in real time and KD values were calculated by reference-substrated sensogram.
To examine the direct binding and calculate the equilibrium dissociation constant (KD) of MDL-A analogues with gp130 extracellular domain, surface plasmon resonance analysis was performed. Surface plasmon resonance (SPR) analysis was performed using a BIAcore T100. […]

Kd (gp130 extracellular domain, Biacore evaluation software 2.0, read-out: KD): 288 µM
Kd (values in running text and figure legend, read-out: dissociation constant (KD)): ~300 µM and ~290 µM
SMILES: CCCCC1=C(C)C(=O)[C@@](C)(CN2c3ccccc3[C@]3(O)CCO[C@H]23)C1=O [MDL-A, (+)-Madindoline A, reference compound]
